Test results reported in patent publication US5147876A, “2,6-di,2,4,6-, 2,5,6-tri and 2,4,5,6-tetra-substituted pyrimidines, their pharmaceutically acceptable salts, pharmaceutical compositions containing same and their use in the treatment of neurological diseases” (Mitsui Petrochemical Industries, Ltd., priority 1988, dated 1992).

Tests used:
[1] = tested on: neuro-2a (mouse neuroblastoma cells); experiment: Action on neuro-2a: proportion of cells containing outgrown neurites; format: cell-based; conditions: mean ± S.D.
Procedure: (§1) The effects of the compounds of this invention on neuroblastoma cells were examined by the following method.
(§2) Mouse neuro 2a cells in the logarithmic growth period in the Dulbecco's modified Eagle's medium DMEM, containing 100 units/ml of penicillin G sodium and 100 micrograms/ml of streptomycin sulfate]containing 10 % of FCS were seeded in a 48-well plate so that the number of cells was 1,000 cells/well, and cultured for one day in 0.25 ml of the culture fluid in each well in an incubator containing 5 % of carbon dioxide gas in air at 37° C. Then, a 4 % aqueous glutaraldehyde solution in the same amount as a medium (0.25 ml) was added, and the culture fluid was left to stand at room temperature for 2 hours to fix the cells. After washing with water, a 0.05 % aqueous solution of methylene blue was added to stain the cells Under a microscope, the number of cells containing outgrown neurites (cells having at least one neurite with a length of at least two times as large as the long diameter of the cell) was counted visually, and the proportion of these cells in the entire cells was calculated. The well was observed over 5 or more visual fields (at least 2 % of the entire surface area of the well) continuous to the left and right from a mark put at the center of the well, and more than 200 cells was counted. One drug compound was used in 6 different concentrations at most, and three runs were conducted for each concentrations.

[2] = tested on: NS-20Y (mouse neuroblastoma cells); experiment: Activity on NS-20Y cells: appearance of neurites; format: cell-based
Procedure: as §1, §2
Mouse neuroblastoma cells NS-20Y were similarly cultured in a dish coated with polyornithine, and the effects of the compounds were examined.

CCOC(=O)c1cnc(N2CCCCC2)nc1CNC [Compound 812]
Number of cells having neurites with a length at least two times the diameter of each cell/total number of cells ([1]; 0.1 mM): 3.5 ± 0.5%
Number of cells having neurites with a length at least two times the diameter of each cell/total number of cells ([1]; 0.3 mM): 3.4 ± 0.5%
Number of cells in which neurites appeared/total number of cells ([2]; 24 hours, 0.5 mM): 9/50
Number of cells in which neurites appeared/total number of cells ([2]; 24 hours, 1.0 mM): 11/50
Number of cells in which neurites appeared/total number of cells ([2]; 48 hours, 0.3 mM): 9/50
Number of cells in which neurites appeared/total number of cells ([2]; 48 hours, 0.5 mM): 5/51

CN(C)CCN(C(=O)c1ccccc1)c1ccnc(N2CCC(c3ccccc3)CC2)n1 [Compound 200]
Number of cells having neurites with a length at least two times the diameter of each cell/total number of cells ([1]; 0.01 mM): 4.2 ± 1.6%
Number of cells having neurites with a length at least two times the diameter of each cell/total number of cells ([1]; 0.03 mM): 7.6 ± 1.6%
Number of cells in which neurites appeared/total number of cells ([2]; 24 hours, 0.02 mM): 4/50
Number of cells in which neurites appeared/total number of cells ([2]; 48 hours, 0.02 mM): 2/50

CN1C(=O)Cc2cnc(N3CCN(C(c4ccccc4)c4ccc(F)cc4)CC3)nc21 (centres unmarked) [Compound 3136]
Number of cells having neurites with a length at least two times the diameter of each cell/total number of cells ([1]; 0.01 mM): 5.8 ± 0.6%
Number of cells having neurites with a length at least two times the diameter of each cell/total number of cells ([1]; 0.03 mM): 13.8 ± 4.8%
Number of cells having neurites with a length at least two times the diameter of each cell/total number of cells ([1]; 0.1 mM): 20.9 ± 5.3%
Number of cells having neurites with a length at least two times the diameter of each cell/total number of cells ([1]; 0.3 mM): 7.1 ± 3.0%

CN(C(=O)c1ccccc1)c1ccnc(N2CCC(c3ccccc3)CC2)n1 [Compound 167]
Number of cells having neurites with a length at least two times the diameter of each cell/total number of cells ([1]; 0.1 mM): 22.5 ± 3.4%
Number of cells having neurites with a length at least two times the diameter of each cell/total number of cells ([1]; 0.3 mM): 9.3 ± 2.3%

CCOC(=O)c1cnc(NC(C)C)nc1CN(C)C [Compound 828]
Number of cells having neurites with a length at least two times the diameter of each cell/total number of cells ([1]; 0.3 mM): 7.3 ± 1.6%
Number of cells having neurites with a length at least two times the diameter of each cell/total number of cells ([1]; 1 mM): 6.1 ± 2.0%
Number of cells in which neurites appeared/total number of cells ([2]; 24 hours, 0.3 mM): 10/58
Number of cells in which neurites appeared/total number of cells ([2]; 24 hours, 0.5 mM): 5/59
Number of cells in which neurites appeared/total number of cells ([2]; 48 hours, 0.3 mM): 6/50
Number of cells in which neurites appeared/total number of cells ([2]; 48 hours, 0.5 mM): 5/51

CCCCNC1CCN(c2nccc(N(C)C(=O)c3ccccc3)n2)CC1 [Compound 2260]
Number of cells having neurites with a length at least two times the diameter of each cell/total number of cells ([1]; 0.03 mM): 2.2 ± 0.3%
Number of cells having neurites with a length at least two times the diameter of each cell/total number of cells ([1]; 0.1 mM): 2.3 ± 0.5%

CN(C(=O)COc1ccccc1)c1ccnc(N2CCC(c3ccccc3)CC2)n1 [Compound 2286]
Number of cells having neurites with a length at least two times the diameter of each cell/total number of cells ([1]; 0.03 mM): 9.7 ± 5.4%
Number of cells having neurites with a length at least two times the diameter of each cell/total number of cells ([1]; 0.1 mM): 8.4 ± 0.8%

CNc1nccc(N2CCc3ccccc3C2)n1 [Compound 1130]
Number of cells having neurites with a length at least two times the diameter of each cell/total number of cells ([1]; 0.03 mM): 1.8 ± 0.5%
Number of cells having neurites with a length at least two times the diameter of each cell/total number of cells ([1]; 0.1 mM): 2.0 ± 0.3%

CN(C(=O)c1ccccc1)c1ccnc(N2CCC(N3CCCCC3)CC2)n1 [Compound 2052]
Number of cells having neurites with a length at least two times the diameter of each cell/total number of cells ([1]; 0.01 mM): 4.6 ± 2.1%
Number of cells having neurites with a length at least two times the diameter of each cell/total number of cells ([1]; 0.03 mM): 3.7 ± 0.4%

CN(C(=O)c1ccccc1)c1ccnc(N2CCC(c3ccccc3)CC2)n1 [Compound 166]
Number of cells having neurites with a length at least two times the diameter of each cell/total number of cells ([1]; 0.1 mM): 36.8 ± 7.1%
Number of cells having neurites with a length at least two times the diameter of each cell/total number of cells ([1]; 0.3 mM): 13.4 ± 4.0%

CN(C(=O)c1ccccc1)c1nccc(N2CCC(Cc3ccccc3)CC2)n1 [Compound 692]
Number of cells having neurites with a length at least two times the diameter of each cell/total number of cells ([1]; 0.03 mM): 5.8 ± 0.9%
Number of cells having neurites with a length at least two times the diameter of each cell/total number of cells ([1]; 0.1 mM): 11.1 ± 2.9%

CNc1nc(C)cc(N2CCCCC2)n1 [Compound 1110]
Number of cells having neurites with a length at least two times the diameter of each cell/total number of cells ([1]; 0.01 mM): 3.4 ± 1.1%
Number of cells having neurites with a length at least two times the diameter of each cell/total number of cells ([1]; 0.03 mM): 4.4 ± 0.3%
Number of cells having neurites with a length at least two times the diameter of each cell/total number of cells ([1]; 0.1 mM): 6.3 ± 4.4%
Number of cells having neurites with a length at least two times the diameter of each cell/total number of cells ([1]; 0.3 mM): 16.5 ± 2.1%
